{
  "source": "patent US11123391B2",
  "about": "“Nasal composition” (INQPHARM GROUP SDN BHD, priority 2015, dated 2021)",
  "tested_on": "HMC1 cells",
  "assay": "In vitro testing of mast cell line HMC-1: histamine release after IgE/anti-IgE, ELISA of supernatant",
  "format": "cell-based",
  "details": "calcium ionophore 100 μg/ml, 30 min; for histamine production / release: no IgE/anti-IgE",
  "protocol": "Mast cell lines, i.e. HMC1 cells (provided by Dr Joseph H. Butterfield; Mayo Clinic, Rochester, Minn., USA), were cultured in Isocove's Modified Dulbecco's Medium (IMDM) containing 10% Fetal Bovine Serum (FBS), 2 mM L-glutamine, 50 μM 2-mercaptoethanol, 100 U/mL penicillin and 100 μg/mL streptomycin. Cells were maintained at 37° C. in 5% CO2 in a humidified atmosphere.\nPercentage of living cells was determined by trypan blue staining. A 1:10 dilution with 50 μl cell suspension and 450 μl trypan blue was prepared and the number of living and dead cells was counted in a hemocytometer. 10^6 living cells were transferred into safe-lock Eppendorf tubes. Cell suspensions were centrifuged (200 g, 5 min) and supernatant was discarded.\nThe effect of perilla oil, sesame oil and a combination of perilla oil and sesame oil (in a combination ratio of 1:1) in the vehicle Kolliphor ELP (polyoxyl-35 hydrogenated castor oil) was determined. The positive control Cromolyn in phosphate buffer saline (PBS), the vehicles PBS and ELP, and calcium ionophore A23187 were also tested as controls.\nAfter adding 100 μl IgE (100 ng/ml in PBS/ELP) to the cell pellets, cells were incubated for 12 hours over night, at 37° C. Cells were than incubated for 2 hours, at 37° C. with different concentrations of compounds. After centrifugation (200 g, 5 min), supernatant was discarded and cell pellet was again incubated for 1 hour, at 37° C. with 100 μl anti-IgE (1 μg/ml in PBS/ELP). For the final incubation time of 6 hours, at 37° C., 300 μl HMC1 media was added. Cells were again centrifuged (200 g, 5 min) and supernatant was collected and stored as 300 μl aliquots at −20° C. for ELISA measurements. Cell pellets were resuspended in 100 μl HMC1 media for determining cell viability.\nThe procedure was slightly different when the compound testing was calcium ionophore A23187. […]\nThe concentration of histamine in the collected supernatant was determined by ELISA, using a kit obtained from IBL International according to the manufacturer's guidelines. Each sample was measured twice. […]",
  "data": [
    {"smiles": "CNc1ccc2oc(C[C@H]3O[C@@]4(CC[C@H]3C)O[C@H]([C@H](C)C(=O)c3ccc[nH]3)[C@H](C)C[C@H]4C)nc2c1C(=O)O", "note": "[calcium ionophore, calcium ionophore A23187]", "values": [
      {"measurement": "effect on the cells (cell viability)", "value": "cells were completely destroyed"},
      {"measurement": "histamine production / release", "value": "highest values of histamine production"},
      {"measurement": "histamine production / release", "setting": "listed as Calcium ionophore", "value": "released all histamine"}
    ]}
  ]
}
